One test addresses T1, 5-HT1E (Homo sapiens, UniProt P28566).
T1 construct: purchased NIMH Psychoactive Drug Screening Program (PDSP)
The test is described as follows: PDSP primary binding 5-HT1E. The conditions noted are these: primary binding, 10,000 nM; last figure of the line = mean of the 4 before it. As for the experimental part: (§1) To determine if any off-target receptor-binding effects are present, all the novel ligands were sent to the National Institute of Mental Health (NIMH), Psychoactive Drug Screening Program (PDSP). The ligands were screened over a panel of 47 receptors, ion channels, and transporters to determine any other possible interactions with […]. The hERG-binding was also determined. […] No binding of the test compounds to calcium channels was observed. […] It is necessary to screen the compounds for hERG-binding during the early process of drug discovery. The unintentional binding of many drugs to hERG can cause blockade of hERG K+ channels in the heart, which can cause many side effects including cardiac arrhythmias and sudden death. […] All of the α5 imidazodiazepines were tested for hERG-binding.
(§2) The NIMH PDSP assay protocol book [https://kidbdev.med.unc.edu/databases/PDSP%20Protocols%20II%202013-03-28.pdf accessed on 23 April 2023]. describes the protocols for primary and secondary radio-ligand binding assays. These assays were carried out in a final volume of 125 µL per well in the appropriate binding buffer.
(§3) The binding of a ligand to a receptor, ion channel, or transporter was determined in the […] of 10 µM of the appropriate reference compound. […] Plates were incubated in the dark for 90 min at rt, and the reactions were stopped by vacuum filtration onto 0.3% polyethyleneimine (PEI) soaked 96-well filter mats using a 96-well Filtermateharvester. This was followed by three washes with cold PBS buffer. Radioactivity was then counted on a Microbeta counter. Nonlinear regression was used to analyze the data with N = 6 replicates.

Another test concerns the target T2, Alpha2A (Homo sapiens, UniProt P08913).
T2 construct: purchased NIMH Psychoactive Drug Screening Program (PDSP)
T2 sequence (P08913 1-465): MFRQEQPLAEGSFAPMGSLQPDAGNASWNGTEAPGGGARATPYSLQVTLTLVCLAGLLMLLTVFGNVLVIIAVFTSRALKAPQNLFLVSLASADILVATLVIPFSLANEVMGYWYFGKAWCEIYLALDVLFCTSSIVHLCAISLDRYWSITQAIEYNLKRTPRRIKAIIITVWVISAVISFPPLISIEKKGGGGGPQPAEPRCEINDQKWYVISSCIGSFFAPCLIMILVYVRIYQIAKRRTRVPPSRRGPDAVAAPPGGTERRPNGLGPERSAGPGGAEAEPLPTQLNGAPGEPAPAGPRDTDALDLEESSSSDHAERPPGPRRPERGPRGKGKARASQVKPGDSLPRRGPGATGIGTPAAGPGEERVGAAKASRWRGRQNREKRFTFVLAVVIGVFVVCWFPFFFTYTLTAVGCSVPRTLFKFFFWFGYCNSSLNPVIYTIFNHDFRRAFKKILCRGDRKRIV
The test is described as follows: PDSP primary binding Alpha2A. The conditions noted are these: 1.5 h; primary binding, 10,000 nM; last figure of the line = mean of the 4 before it; read-out: Alpha2A, PDSP raw data, mean. The procedure:
as §1, §2, §3

Another test has as its target T3, M4 (Homo sapiens, UniProt P08173).
T3 construct: purchased NIMH Psychoactive Drug Screening Program (PDSP)
T3 sequence (P08173 1-479): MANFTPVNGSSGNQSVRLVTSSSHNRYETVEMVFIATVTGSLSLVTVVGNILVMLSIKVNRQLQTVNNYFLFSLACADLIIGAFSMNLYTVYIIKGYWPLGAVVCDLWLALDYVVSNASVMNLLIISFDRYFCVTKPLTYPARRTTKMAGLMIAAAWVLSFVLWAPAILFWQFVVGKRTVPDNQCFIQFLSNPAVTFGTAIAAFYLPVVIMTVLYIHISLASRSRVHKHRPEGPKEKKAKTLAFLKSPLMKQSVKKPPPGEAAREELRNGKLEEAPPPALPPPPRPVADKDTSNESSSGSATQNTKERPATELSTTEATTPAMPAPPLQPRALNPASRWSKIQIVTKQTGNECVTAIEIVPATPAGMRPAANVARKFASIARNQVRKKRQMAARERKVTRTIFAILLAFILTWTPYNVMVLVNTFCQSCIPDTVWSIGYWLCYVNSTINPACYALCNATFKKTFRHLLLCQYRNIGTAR
The test is described as follows: PDSP primary binding M4. The conditions noted are these: primary binding, 10,000 nM; last figure of the line = mean of the 4 before it; read-out: M4, PDSP raw data, mean. The procedure: as §1, §2, §3

Test [1] has as its target peripheral benzodiazepine receptors (PBR) (Rattus norvegicus, UniProt P16257). The test is described as follows: PDSP radioligand binding at PBR.
Text: The compounds were also screened at PDSP to determine any binding with peripheral benzodiazepine receptors (PBR). A number of biological processes are associated with PBR. The most prevalent are transportation of anions for mitochondrial transmembrane potential, biosynthesis of heme, regulation of neurological damage, proliferation, cell death (apoptosis), as well as regulation of steroidogenesis. The test compounds were screened in the primary binding assay to determine the % inhibition at PBR. […] These compounds were then subjected to a secondary screening to determine the Ki (nM) value for PBR receptors.
as §2, §3

The next test addresses T4, 5-HT1B (Homo sapiens, UniProt P28222).
T4 construct: purchased NIMH Psychoactive Drug Screening Program (PDSP)
The experiment in a line: PDSP primary binding 5-HT1B. The conditions noted are these: 1.5 h; primary binding, 10,000 nM; last figure of the line = mean of the 4 before it; read-out: 5-HT1B, PDSP raw data, mean. The procedure:
as §1, §2, §3

For the next test, the target named is T5, Alpha4Beta2 (Rat Brain) (Rattus norvegicus, UniProt P09483+P12390).
T5 construct: purchased NIMH Psychoactive Drug Screening Program (PDSP)
T5 sequence (P09483 31-630): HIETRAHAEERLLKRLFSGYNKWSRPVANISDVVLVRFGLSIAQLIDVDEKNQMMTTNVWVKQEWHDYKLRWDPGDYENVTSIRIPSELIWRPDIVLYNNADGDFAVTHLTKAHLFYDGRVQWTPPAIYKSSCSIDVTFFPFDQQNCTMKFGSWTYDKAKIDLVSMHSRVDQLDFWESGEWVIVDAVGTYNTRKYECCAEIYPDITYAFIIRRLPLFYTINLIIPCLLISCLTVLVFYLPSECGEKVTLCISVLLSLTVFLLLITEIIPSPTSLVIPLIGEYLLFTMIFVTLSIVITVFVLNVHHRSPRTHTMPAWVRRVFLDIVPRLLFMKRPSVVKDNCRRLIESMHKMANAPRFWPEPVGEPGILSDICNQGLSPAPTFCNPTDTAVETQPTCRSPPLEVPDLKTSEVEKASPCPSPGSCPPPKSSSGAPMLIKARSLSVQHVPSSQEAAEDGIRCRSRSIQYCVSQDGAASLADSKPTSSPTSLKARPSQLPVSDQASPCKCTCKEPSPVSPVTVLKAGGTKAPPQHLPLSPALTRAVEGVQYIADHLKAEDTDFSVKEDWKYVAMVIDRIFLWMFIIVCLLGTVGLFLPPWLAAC
T5 sequence (P12390 25-500): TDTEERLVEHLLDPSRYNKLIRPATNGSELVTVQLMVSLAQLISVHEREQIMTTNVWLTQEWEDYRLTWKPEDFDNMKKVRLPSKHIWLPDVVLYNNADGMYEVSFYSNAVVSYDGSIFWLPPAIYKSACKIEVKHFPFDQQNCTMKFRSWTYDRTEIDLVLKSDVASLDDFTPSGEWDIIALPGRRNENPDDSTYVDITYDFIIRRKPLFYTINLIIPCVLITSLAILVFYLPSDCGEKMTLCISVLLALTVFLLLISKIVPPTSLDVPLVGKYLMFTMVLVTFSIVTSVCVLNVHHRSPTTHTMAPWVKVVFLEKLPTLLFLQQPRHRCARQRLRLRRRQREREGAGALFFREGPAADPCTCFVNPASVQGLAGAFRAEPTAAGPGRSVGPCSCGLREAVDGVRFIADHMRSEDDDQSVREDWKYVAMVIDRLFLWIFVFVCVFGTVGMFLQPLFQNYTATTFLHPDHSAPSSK
The test is described as follows: PDSP primary binding Alpha4Beta2 (Rat Brain). The conditions noted are these: primary binding, 10,000 nM; last figure of the line = mean of the 4 before it; read-out: Alpha4Beta2 (Rat Brain), PDSP raw data, mean. As for the experimental part: as §1, §2, §3

The next test deals with T6, M3 (Homo sapiens, UniProt P20309).
T6 construct: purchased NIMH Psychoactive Drug Screening Program (PDSP)
T6 sequence (P20309 whole entry): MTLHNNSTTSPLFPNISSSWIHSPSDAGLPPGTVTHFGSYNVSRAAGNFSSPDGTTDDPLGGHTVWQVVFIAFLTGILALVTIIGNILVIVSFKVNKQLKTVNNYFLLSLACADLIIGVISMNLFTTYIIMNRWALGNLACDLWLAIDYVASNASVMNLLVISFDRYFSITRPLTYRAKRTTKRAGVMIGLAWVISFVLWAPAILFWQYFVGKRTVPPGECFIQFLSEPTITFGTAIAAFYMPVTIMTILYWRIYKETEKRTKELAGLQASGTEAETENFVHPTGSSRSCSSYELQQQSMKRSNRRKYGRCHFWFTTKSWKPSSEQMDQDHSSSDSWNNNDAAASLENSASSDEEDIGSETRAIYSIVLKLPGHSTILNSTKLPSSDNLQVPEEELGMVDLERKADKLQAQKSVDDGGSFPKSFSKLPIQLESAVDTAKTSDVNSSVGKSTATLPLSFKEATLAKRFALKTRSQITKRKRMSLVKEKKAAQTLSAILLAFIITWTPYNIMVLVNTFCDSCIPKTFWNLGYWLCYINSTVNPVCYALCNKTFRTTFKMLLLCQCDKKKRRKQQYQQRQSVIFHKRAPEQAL
The experiment in a line: PDSP primary binding M3. Conditions: primary binding, 10,000 nM; last figure of the line = mean of the 4 before it; read-out: M3, PDSP raw data, mean. The procedure: as §1, §2, §3

Where [2] appears, read: 1.5 h, primary binding, 10,000 nM, last figure of the line = mean of the 4 before it, some tables list PBR twice, read-out: PBR, PDSP raw data, mean.

By Ki is commonly meant a measure of affinity in units of concentration, obtained from inhibition or displacement. A low value points to tighter binding.

Like-named read-outs stand apart in the source and are kept apart here.

T4 sequence (P28222 whole entry): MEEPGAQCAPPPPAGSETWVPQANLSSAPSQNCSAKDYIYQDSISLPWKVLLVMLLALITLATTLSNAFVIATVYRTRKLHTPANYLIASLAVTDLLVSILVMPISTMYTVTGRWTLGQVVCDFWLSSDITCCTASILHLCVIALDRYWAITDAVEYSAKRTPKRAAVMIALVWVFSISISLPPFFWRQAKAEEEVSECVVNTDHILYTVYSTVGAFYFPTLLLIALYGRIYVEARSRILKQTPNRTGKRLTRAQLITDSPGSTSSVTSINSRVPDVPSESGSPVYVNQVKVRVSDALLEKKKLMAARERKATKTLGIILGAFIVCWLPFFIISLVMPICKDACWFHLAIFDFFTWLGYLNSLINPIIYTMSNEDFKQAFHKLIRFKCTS
Sequence of peripheral benzodiazepine receptors (PBR) (P16257 whole entry): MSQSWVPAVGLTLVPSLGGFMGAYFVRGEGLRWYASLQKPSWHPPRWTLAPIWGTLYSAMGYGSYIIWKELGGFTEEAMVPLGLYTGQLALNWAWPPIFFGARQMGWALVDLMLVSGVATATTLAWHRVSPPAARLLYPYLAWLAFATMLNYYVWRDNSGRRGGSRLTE
T1 sequence (P28566 whole entry): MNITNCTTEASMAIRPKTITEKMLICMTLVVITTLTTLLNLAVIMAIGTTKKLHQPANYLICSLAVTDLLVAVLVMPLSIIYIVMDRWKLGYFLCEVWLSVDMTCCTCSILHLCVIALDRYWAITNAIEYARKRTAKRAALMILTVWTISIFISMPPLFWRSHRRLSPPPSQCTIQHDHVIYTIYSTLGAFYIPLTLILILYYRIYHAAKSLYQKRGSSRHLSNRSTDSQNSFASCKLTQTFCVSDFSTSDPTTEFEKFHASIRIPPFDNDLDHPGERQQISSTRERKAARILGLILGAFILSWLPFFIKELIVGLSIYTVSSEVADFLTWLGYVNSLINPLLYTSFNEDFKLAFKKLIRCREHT

Regarding `C[C@H]1N=C(c2ccccc2F)c2cc(-c3ccccc3)ccc2-n2cnc(C(=O)N(C)C)c21` [Compound 5, (R)-6-(2′-Fluorophenyl)-N,N,4-trimethyl-8-phenyl-4H-benzo[f]imidazo[1,5-a][1,4]diazepine-3-carboxamide], on 5-HT1E, the “5-HT1E, PDSP raw data, mean” value amounted to 34.07%. The inhibition at 10 µM was 5.99% at Alpha2A; -3.29% at M4; 22.3% in test [1] (setting [2]); 11.8% on 5-HT1B; -5.7% at Alpha4Beta2 (Rat Brain); 3.03% at M3.
In the case of `C#Cc1ccc2c(c1)C(c1ccccc1Cl)=N[C@H](C)c1c(C(=O)NC)ncn1-2` [Compound 21, (R)-6-(2′-Chlorophenyl)-8-ethynyl-N,4-dimethyl-4H-benzo[f]imidazo[1,5-a][1,4]diazepine-3-carboxamide], the “5-HT1E, PDSP raw data, mean” value on 5-HT1E is reported as 7.75%. Further, the inhibition at 10 µM on Alpha2A is -1.1%; at M4 it was -16.9%; in test [1] (setting [2]), 5.68%; at 5-HT1B, -0.39%; at Alpha4Beta2 (Rat Brain) it was 0.7%; at M3 it was -12.9%.
Regarding `C#Cc1ccc2c(c1)C(c1ccccn1)=N[C@@H](C)c1c(C(=O)NC)ncn1-2` [Compound 23, (S)-8-Ethynyl-N,4-dimethyl-6-(pyridin-2′-yl)-4H-benzo[f]imidazo[1,5-a][1,4]diazepine-3-carboxamide], on 5-HT1E, the “5-HT1E, PDSP raw data, mean” value was found to be 19.33%. In addition, the inhibition at 10 µM on Alpha2A was 5.8%; on M4 it was 2.93%; in test [1] (setting [2]) it was 34.9%; on 5-HT1B it was -3.82%; on Alpha4Beta2 (Rat Brain), 2.71%; at M3, 0.11%.
As to `C#Cc1ccc2c(c1)C(c1ccccc1Cl)=N[C@H](C)c1c(C(=O)N(C)CC)ncn1-2` [Compound 29], on 5-HT1E, the “5-HT1E, PDSP raw data, mean” value was 19.25%. Further, the inhibition at 10 µM was 7.96% on Alpha2A; 4.91% on M4; -10.9% in test [1] (setting [2]); -3.99% at 5-HT1B; 0.03% at Alpha4Beta2 (Rat Brain); -8.9% on M3.
With `C#Cc1ccc2c(c1)C(c1ccccn1)=N[C@@H](C)c1c(C(=O)N(C)C)ncn1-2` [Compound 31, (S)-8-Ethynyl-N,N,4-trimethyl-6-(pyridin-2′-yl)-4H-benzo[f]imidazo[1,5-a][1,4]diazepine-3-carboxamide], at 5-HT1E, the “5-HT1E, PDSP raw data, mean” value worked out at 18.14%. The inhibition at 10 µM at Alpha2A was -7.15%; on M4, 3.2%; in test [1] (setting [2]), 4.44%; on 5-HT1B, -0.27%; at Alpha4Beta2 (Rat Brain), 2.48%; on M3, -13%.
`C#Cc1ccc2c(c1)C(c1ccccc1F)=N[C@H](C)c1c(C(=S)N(C)C)ncn1-2` [Compound 33, (R)-8-Ethynyl-6-(2′-fluorophenyl)-N,N,4-trimethyl-4H-benzo[f]imidazo[1,5-a][1,4]diazepine-3-carbothioamide]: the “5-HT1E, PDSP raw data, mean” value at 5-HT1E was 34.07%. Also, the inhibition at 10 µM at Alpha2A is 5.99%; on M4, -3.29%; in test [1] (setting [2]), 22.3%; in test [1] (at 10,000 nM, N = 5, read-out: Binding Affinity at PBR % Inhibition (Primary)) it was 66.4 ± 3.3%; at 5-HT1B, 11.8%; on Alpha4Beta2 (Rat Brain) it was -5.7%. Also, the inhibition at 10 µM at M3 was 3.03%. Also, the affinity in test [1] corresponds to a Ki of 1710 nM.

Values taken from paper PMC10303271, “Synthesis and Receptor Binding Studies of α5 GABAAR Selective Novel Imidazodiazepines Targeted for Psychiatric and Cognitive Disorders” (Molecules, 2023).
